Where two headings read alike, the source gives them in different places. Blank lines part the entries; values can stand above or below the molecule they belong to.
Assays:
[1] = tested on: ANF (P19 cells); experiment: ANF promoter luciferase reporter assay in P19 cells; assay type: cell-based, mouse; conditions: Mus musculus, read-out: ANF activity
[2] = tested on: TOPflash (C2C12 cells); experiment: TOPflash luciferase reporter assay in C2C12 cells; assay type: cell-based; conditions: Mus musculus, read-out: TOPflash activity
[3] = tested on: ANF (C2C12 cells); experiment: ANF promoter luciferase reporter assay in C2C12 cells; assay type: cell-based, mouse; conditions: for fold induction at 1 µM: Mus musculus, read-out: ANF activity; for luciferase signal in all three reporter assays: ANF, TOPflash and Nkx2.5 reporter assays together
[4] = tested on: Nkx2.5 (P19 cells); experiment: Nkx2.5 luciferase reporter assay in P19 cells; assay type: cell-based; conditions: Mus musculus, read-out: Nkx2.5 activity
[5] = tested on: TOPflash (P19 cells); experiment: TOPflash luciferase reporter assay in P19 cells; assay type: cell-based; conditions: Mus musculus, read-out: TOPflash activity
[6] = tested on: Nkx2.5 (C2C12 cells); experiment: Nkx2.5 luciferase reporter assay in C2C12 cells; assay type: cell-based; conditions: Mus musculus, read-out: Nkx2.5 activity
[7] = 192 h, P19 cells, 1 μM for 8 days, luciferase signal vs control (untreated cells)
[8] = 192 h, C2C12 cells, 1 μM for 8 days, luciferase signal vs control (untreated cells)

SMILES: COc1ccc(Nc2cc(NC3CCCC3)ncn2)cc1 [example 18, N^4-Cyclopentyl-N^6-(4-methoxyphenyl)pyrimidine-4,6-diamine]
- fold induction at 1 µM ([1]; P19, 192 h): > 2

SMILES: COc1ccc(N(C)c2cc(NCCO)ncn2)cc1 [example 38, 2-(6-((4-Methoxyphenyl)(methyl)amino)pyrimidin-4-ylamino)ethan-1-ol]
- fold induction at 1 µM [1, 7]: > 2

SMILES: COCCNc1cc(Nc2ccc(OC)cc2)ncn1 [example 13, N^4-(2-Methoxyethyl)-N^6-(4-methoxyphenyl)pyrimidine-4,6-diamine]
- fold induction at 1 µM ([1]; P19, 192 h): 1.3 to 2

SMILES: OCCNc1cc(NC2CCCCC2)ncn1 [example 39, 2-(6-(Cyclohexylamino)pyrimidin-4-ylamino)ethan-1-ol]
- fold induction at 1 µM ([1]; P19, 192 h): < 1.3

SMILES: OCCCNc1cccc(Nc2ccc(Oc3ccccc3)cc2)n1 [example 45, 3-(6-(4-Phenoxyphenylamino)pyridin-2-ylamino)propan-1-ol]
- fold induction at 1 µM [2, 8]: 1.3 to 2
- fold induction at 1 µM [1, 7]: < 1.3
- fold induction at 1 µM [3, 8]: < 1.3
- fold induction at 1 µM [4, 7]: < 1.3
- fold induction at 1 µM [5, 7]: < 1.3
- fold induction at 1 µM [6, 8]: < 1.3

SMILES: OCCNc1cccc(Nc2ccc(Oc3ccccc3)cc2)n1 [example 44, 2-(6-(4-Phenoxyphenylamino)pyridin-2-ylamino)ethan-1-ol]
- fold induction at 1 µM [2, 8]: < 1.3
- fold induction at 1 µM [1, 7]: 1.3 to 2
- fold induction at 1 µM [3, 8]: < 1.3
- fold induction at 1 µM [4, 7]: < 1.3
- fold induction at 1 µM [5, 7]: < 1.3
- fold induction at 1 µM [6, 8]: 1.3 to 2

SMILES: COc1ccc(Nc2cc(N3CCOCC3)ncn2)cc1 [example 15, N-(4-Methoxyphenyl)-6-morpholinopyrimidin-4-amine]
- fold induction at 1 µM [1, 7]: > 2

- melting point: 198 to 199 °C
SMILES: OCCCNc1cc(Nc2ccc(N3CCOCC3)cc2)ncn1 [example 6, 3-(6-(4-Morpholinophenylamino)pyrimidin-4-ylamino)propan-1-ol]
- fold induction at 1 µM [2, 8]: < 1.3
- fold induction at 1 µM [1, 7]: 1.3 to 2
- fold induction at 1 µM [3, 8]: 1.3 to 2
- fold induction at 1 µM [4, 7]: < 1.3
- fold induction at 1 µM [5, 7]: < 1.3
- fold induction at 1 µM [6, 8]: 1.3 to 2

SMILES: COc1ccc(Nc2cc(N(C)CCO)ncn2)cc1 [example 16, 2-((6-(4-Methoxyphenylamino)pyrimidin-4-yl)(methyl)amino)ethan-1-ol]
- fold induction at 1 µM ([1]; P19, 192 h): > 2

- melting point: 154 to 155 °C
SMILES: OCCNc1cc(Nc2ccc(Nc3ccccc3)cc2)ncn1 [example 7, 2-(6-(4-(Phenylamino)phenylamino)pyrimidin-4-ylamino)ethan-1-ol]
- fold induction at 1 µM [2, 8]: < 1.3
- fold induction at 1 µM [1, 7]: < 1.3
- fold induction at 1 µM [3, 8]: < 1.3
- fold induction at 1 µM [4, 7]: < 1.3
- fold induction at 1 µM [5, 7]: < 1.3
- fold induction at 1 µM [6, 8]: < 1.3

- melting point: 154 to 156 °C
SMILES: OCCNc1cc(Nc2ccc(Oc3ccccc3)cc2)ncn1 [example 8, 2-(6-(4-Phenoxyphenylamino)pyrimidin-4-ylamino)ethan-1-ol]
- fold induction at 1 µM [2, 8]: < 1.3
- fold induction at 1 µM [1, 7]: < 1.3
- fold induction at 1 µM [3, 8]: < 1.3
- fold induction at 1 µM [4, 7]: < 1.3
- fold induction at 1 µM [5, 7]: 1.3 to 2
- fold induction at 1 µM [6, 8]: 1.3 to 2

SMILES: COCCNc1cc(Nc2cccc(Cl)c2)ncn1 [example 27, N^4-(3-Chlorophenyl)-N^6-(2-methoxyethyl)pyrimidine-4,6-diamine]
- fold induction at 1 µM ([1]; P19, 192 h): < 1.3
- fold induction at 1 µM ([4]; P19, 192 h): < 1.3

- melting point: 194 to 196 °C
SMILES: CCCNc1cc(Nc2ccc(OC)cc2)ncn1 [example 9, N^4-(4-Methoxyphenyl)-N^6-propylpyrimidine-4,6-diamine]
- fold induction at 1 µM [2, 8]: 1.3 to 2
- fold induction at 1 µM [1, 7]: < 1.3
- fold induction at 1 µM [3, 8]: < 1.3
- fold induction at 1 µM [4, 7]: > 2
- fold induction at 1 µM [5, 7]: < 1.3
- fold induction at 1 µM [6, 8]: 1.3 to 2

SMILES: COc1cccc(Nc2cc(NCCO)ncn2)c1 [example 22, 2-(6-(3-Methoxyphenylamino)pyrimidin-4-ylamino)ethan-1-ol]
- fold induction at 1 µM [2, 8]: 1.3 to 2
- fold induction at 1 µM [1, 7]: < 1.3
- fold induction at 1 µM [3, 8]: 1.3 to 2
- fold induction at 1 µM [4, 7]: < 1.3
- fold induction at 1 µM [5, 7]: < 1.3
- fold induction at 1 µM [6, 8]: < 1.3

SMILES: COc1ccc(Nc2cc(NC34CC5CC(CC(C5)C3)C4)ncn2)cc1 [example 21, N^4-Adamant-1-yl-N^6-(4-methoxyphenyl)pyrimidine-4,6-diamine]
- fold induction at 1 µM ([1]; P19, 192 h): > 2

SMILES: CCOC(=O)c1ccc(Nc2cc(NCCO)ncn2)cc1 [example 34, Ethyl 4-(6-(2-hydroxyethylamino)pyrimidin-4-ylamino)benzoate]
- fold induction at 1 µM [1, 7]: < 1.3
- fold induction at 1 µM [4, 7]: < 1.3

- melting point: 174 to 182 °C
SMILES: CNc1cc(Nc2ccc(OC)cc2)ncn1 [example 11, N^4-(4-Methoxyphenyl)-N^6-methylpyrimidine-4,6-diamine]
- fold induction at 1 µM [2, 8]: 1.3 to 2
- fold induction at 1 µM [1, 7]: < 1.3
- fold induction at 1 µM [3, 8]: < 1.3
- fold induction at 1 µM [4, 7]: < 1.3
- fold induction at 1 µM [5, 7]: > 2
- fold induction at 1 µM [6, 8]: 1.3 to 2

SMILES: OCCNc1cc(Nc2cccc(Cl)c2)ncn1 [example 25, 2-(6-(3-Chlorophenylamino)pyrimidin-4-ylamino)ethan-1-ol]
- fold induction at 1 µM [1, 7]: > 2
- fold induction at 1 µM [4, 7]: 1.3 to 2

- melting point: 164 to 165 °C
SMILES: COc1ccc(Nc2ccnc(NCCO)c2)cc1 [example 40, 2-(4-(4-Methoxyphenylamino)pyridin-2-ylamino)ethan-1-ol]
- fold induction at 1 µM [2, 8]: < 1.3
- fold induction at 1 µM [1, 7]: < 1.3
- fold induction at 1 µM [3, 8]: < 1.3
- fold induction at 1 µM [4, 7]: < 1.3
- fold induction at 1 µM [5, 7]: < 1.3
- fold induction at 1 µM [6, 8]: < 1.3

SMILES: OCCCNc1cc(Nc2cccc(Cl)c2)ncn1 [example 31, 3-(6-(3-Chlorophenylamino)pyrimidin-4-ylamino)propan-1-ol]
- fold induction at 1 µM ([1]; P19, 192 h): 1.3 to 2
- fold induction at 1 µM ([4]; P19, 192 h): 1.3 to 2

SMILES: O=[N+]([O-])c1ccc(Nc2cc(NCCO)ncn2)cc1 [example 30, 2-(6-(4-Nitrophenylamino)pyrimidin-4-ylamino)ethan-1-ol]
- fold induction at 1 µM [1, 7]: < 1.3
- fold induction at 1 µM [4, 7]: < 1.3

SMILES: OCCNc1cc(Nc2cccc(F)c2)ncn1 [example 32, 2-(6-(3-Fluorophenylamino)pyrimidin-4-ylamino)ethan-1-ol]
- fold induction at 1 µM [1, 7]: < 1.3
- fold induction at 1 µM [4, 7]: < 1.3

- melting point: 183 °C
SMILES: OCCNc1cc(Nc2ccc(Cl)cc2)ncn1 [example 24, 2-(6-(4-Chlorophenylamino)pyrimidin-4-ylamino)ethan-1-ol]
- fold induction at 1 µM [1, 7]: 1.3 to 2
- fold induction at 1 µM [4, 7]: 1.3 to 2

SMILES: OCCNc1cc(Nc2ccccc2)ncn1 [example 23, 2-(6-(Phenylamino)pyrimidin-4-ylamino)ethan-1-ol]
- fold induction at 1 µM [1, 7]: < 1.3
- fold induction at 1 µM [4, 7]: < 1.3

SMILES: COc1ccc(Nc2cc(NC(C)(C)C)ncn2)cc1 [example 20, N^4-tert-Butyl-N^6-(4-methoxyphenyl)pyrimidine-4,6-diamine]
- fold induction at 1 µM ([1]; P19, 192 h): > 2

SMILES: COc1ccc(Nc2cccc(NCCCO)n2)cc1 [example 43, 3-(6-(4-Methoxyphenylamino)pyridin-2-ylamino)propan-1-ol]
- fold induction at 1 µM [2, 8]: 1.3 to 2
- fold induction at 1 µM [1, 7]: 1.3 to 2
- luciferase signal in all three reporter assays ([3]; C2C12 cells, 1 μM for 8 days): increase in the luciferase signal in all three reporter assays
- fold induction at 1 µM [3, 8]: 1.3 to 2
- fold induction at 1 µM [4, 7]: < 1.3
- fold induction at 1 µM [5, 7]: 1.3 to 2
- fold induction at 1 µM [6, 8]: 1.3 to 2

SMILES: OCCNc1cc(Nc2cccc(Br)c2)ncn1 [example 33, 2-(6-(3-Bromophenylamino)pyrimidin-4-ylamino)ethan-1-ol]
- fold induction at 1 µM [1, 7]: < 1.3
- fold induction at 1 µM [4, 7]: 1.3 to 2

SMILES: COc1ccc(Nc2cc(NC(C)C)ncn2)cc1 [example 12, N^4-(2-Propyl)-N^6-(4-methoxyphenyl)pyrimidine-4,6-diamine]
- fold induction at 1 µM ([2]; C2C12, 192 h): 1.3 to 2
- fold induction at 1 µM ([1]; P19, 192 h): < 1.3
- luciferase signal in all three reporter assays ([3]; C2C12 cells, 1 μM for 8 days): increase in the luciferase signal in all three reporter assays
- fold induction at 1 µM ([3]; C2C12, 192 h): 1.3 to 2
- fold induction at 1 µM ([4]; P19, 192 h): 1.3 to 2
- fold induction at 1 µM ([5]; P19, 192 h): < 1.3
- fold induction at 1 µM ([6]; C2C12, 192 h): 1.3 to 2

SMILES: COc1ccc(Nc2cc(NCC(=O)O)ncn2)cc1 [example 14, 2-(6-(4-Methoxyphenylamino)pyrimidin-4-ylamino)acetic acid]
- fold induction at 1 µM ([1]; P19, 192 h): > 2

SMILES: CCCCNc1cc(Nc2ccc(OC)cc2)ncn1 [example 17, N^4-Butyl-N^6-(4-methoxyphenyl)pyrimidine-4,6-diamine]
- fold induction at 1 µM [1, 7]: > 2

SMILES: CCC(C)Nc1cc(Nc2ccc(OC)cc2)ncn1 (stereo not shown) [example 19, N^4-sec-Butyl-N^6-(4-methoxyphenyl)pyrimidine-4,6-diamine]
- fold induction at 1 µM [1, 7]: < 1.3
- fold induction at 1 µM [4, 7]: < 1.3

SMILES: Clc1cccc(Nc2cc(NC3CCCCC3)ncn2)c1 [example 26, N^4-(3-Chlorophenyl)-N^6-cyclohexylpyrimidine-4,6-diamine]
- fold induction at 1 µM ([1]; P19, 192 h): > 2
- fold induction at 1 µM ([4]; P19, 192 h): > 2

SMILES: COc1cccc(Nc2cc(NC3CCCCC3)ncn2)c1 [example 37, N^4-Cyclohexyl-N^6-(3-methoxyphenyl)pyrimidine-4,6-diamine]
- fold induction at 1 µM ([1]; P19, 192 h): 1.3 to 2
- fold induction at 1 µM ([4]; P19, 192 h): > 2

Source: US8986994B2, “Substituted pyridines and pyrimidines” (Technische Universitaet Wien, priority 2009, dated 2015)
